pIC50: −log10 of the molar value. “Also recorded” adds a separate entry of the source. Structures can show the parent of a compound that is named as a salt.
How the values were obtained:
[1] = test system: lipid peroxidation (brain homogenate); assay: Inhibitory action of lipid peroxidation in brain homogenate (TBA value); format: biochemical; settings: rat brain homogenate, 37° C., 30 minutes; for pIC50: inhibition of lipid peroxidation
Protocol: (1) Inhibitory action of lipid peroxidation (a) Preparation of brain homogenate By use of Wister-strain male rat, brain homogenate was prepared following the procedure as described below. […] Next, a brain perfusion was conducted through the tube with ice-cooled 50 mM phosphate-buffered physiological saline (pH 7.4) hereinafter referred to as "PBS"), and the whole brain was extirpated. After removal of cerebellum, the wet weight of cerebrum was measured and, with addition of 9-fold amount of PBS, it was broken by a Teflon homogenizer in ice-water to be homogenized. After the brain homogenate was subjected to centrifugation at 4° C. at 2200 rpm for 10 minutes, 0.3 ml of the supernatant was apportioned into a light-shielding test tube equipped with a ground stopper, to provide a brain homogenate for evaluation of medicine. (b) Evaluation of test medicine To the brain homogenate produced in (a), 0.6 ml of PBS and 10 μl of ethanolic solution of a test medicine were added (to a final concentration of 500 μM or a concentration at a common ratio of 3 between 0.3 and 100 μm), and the mixture was heated in a warm bath at 37° C. for 30 minutes. […] Also, the same operation was performed by addition of 10 μl of ethanol (blank) in place of 10 μl ethanolic solution of the test medicine for measurement of blank. […] After shaking for about 30 seconds, the mixture was subjected to centrifugation at 3000 rpm for 10 minutes, and the supernatant was provided as a sample for measurement of peroxidized lipid.

[2] = test system: drowsy pattern of electroencephalogram induced by phenobarbital or pentobarbital sodium salt; assay: Antagonistic action against drowsy pattern of electroencephalogram induced by phenobarbital or pentobarbital sodium salt; format: in vivo, Wistar-strain male rat; settings: for minimal effective dose: Rattus norvegicus, intravenous, sodium salt, drowsy EEG after PHB 30 mg/kg or PBT 5 mg/kg, read-out: Antagonistic action at dose or higher
Protocol: (2) Antagonistic action against drowsy pattern of so electroencephalogram induced by phenobarbital or pentobarbital sodium salt
A Wistar-strain male rat weighing about 400 g was intramasculary administered with 0.6 mg of d-tubocurarine to be immobilized and, while maintaining the rectal temperature at 37° to 38° C. under artificial respiration, the electroencephalogram of the left cerebral frontal cortex was measured and recorded. Also, within the left femoral artery and vein, cannulas for measurement of artery pressure and for administration of medicine were placed, respectively.
As the active ingredient of the present invention, sodium salt of the compound represented by Formula (I) was used and the respective doses of said active ingredient and 30 mg/kg of phenobarbital sodium salt (produced by Iwaki Seiyaku K.K.) (hereinafter called "PHB") or 5 mg/kg of pentobarbital sodium salt (hereinafter called PBT) were each dissolved in physiological saline and administered intravenously in a liquid amount of 1 ml/kg.
The action of the active ingredient of the present invention affecting the cortex electroencephalogram after PHB or PBT administration was investigated as follows; Namely, at the time of 5 minutes or later after PHB or PBT administration when increase of the slow-wave component can be clearly recognized on electroencephalogram, 1, 3, 10, 30 and 100 mg/kg of the active ingredient were administered. To the control group 1 ml/kg of physiological saline was intravenously administered.
Recording and analysis of electroencephalogram were continuously drawn together with artery pressure, heart rate and rectal temperature on the recorder through a multi-purpose monitoring recording device (model RM-85, produced by Nippon Koden K.K.). At the same time, electroencephalogram was recorded in data recorder (model A-65, produced by Sony K.K.), and compressed spectral array analysis was conducted by means of a computer for medical data processing (ATAC-450, produced by Nippon Koden K.K.).

[3] = test system: cerebral ischemia recirculation model; assay: Protective action in cerebral ischemia recirculation model; format: in vivo, Wistar-strain male rat; set-up: key to Presence of electroencephalogram restoration / Judgement of action: The case when restoration of electroencephalogram is judged as +; case when not recognized as -; settings: 10 mg/kg into duodenum; 10 min cerebral ischemia (Table 3)
Protocol: (3) Protective action in cerebral ischemia recirculation model
A Wistar-strain male rat weighing about 400 g was administered intramascularly with 0.6 mg of di-tubocurarine to be immobilized and, after a trachea cannulation, the head portion was fixed under artificial respiration on a stereotaxic device. The head skin was cut open, cranial bone was bored, and then bipolar electrode for lead-out of electroencephalogram were placed on the surface of the subdural left frontal cerebral cortex. After the electrode was fixed with the cranial bone by use of dental cement, the animal was held on its back. Next, a cannula for measurement of systemic pressure was placed within the left femoral artery, and a cannula for additional administration of d-tubocurarine within the left femoral vein, respectively. The heart rate was measured and recorded by driving a heart rate meter with the artery wave.
After blood pressure, heart rate and various parameters of electroencephalogram were stabilized, 10 mg/kg of the active ingredient of the present invention prepared in a suspension so as to give 1 ml/kg in 1% tragacanth gum solution was administered directly into duodenum […]. To the control group, only the 1% tragacanth gum solution of the same volume was administered similarly.
Ten to twenty minutes after administration of the medicine, while monitoring the electroencephalogram, blood pressure and heart rate on a multi-purpose monitoring recording device (RM-85 model, produced by Nippon Koden K.K.), the following operations were performed according to the methods shown below for cerebral ischemia loading.
First, ribs were set free at the left costicartilage end to open the chest. Next, cerebral blood flow was blocked for ten minutes by obstructing the left common carotid artery and the left subclavian artery exposed at the aorta originating portion at the same time, and then the brachiocephalic trunk by use of artery clips 30 minutes after administration of the medicine.
Recirculation of cerebral blood flow was effected by releasing at the same time the two artery clips mounted on the respective sites as mentioned above.
The protective action of the medicine for the disorder after recirculation of cerebral ischemia was examined by the presence of restoration of electroencephalogram, and survival time of animal after the recirculation.
During the experiment, the rectal temperature of the animal was maintained at 37° to 38° C. by use of a warming mat. Also, the rectal temperature was continuously drawn on the recorder together with electroencephalogram, femoral artery pressure and heart rate.

[4] = test system: lipid peroxidation by active oxygen; settings: cited from earlier work

Compound	pIC50 [1]	further results
CC1=NN(c2ccccc2C)C(=O)C1 [Compound 2]	3.41	
CC1=NN(c2cccc(C)c2)C(=O)C1 [Compound 3]	5.10	
CC1=NN(c2ccc(C)cc2)C(=O)C1 [Compound 4]	5.20	minimal effective dose [2]: ≥ 10 mg/kg; Presence of electroencephalogram restoration [3]: +
CC1=NN(c2ccc(C)c(C)c2)C(=O)C1 [Compound 5]	5.22	
CCCCc1ccc(N2N=C(C)CC2=O)cc1 [Compound 7]	5.66	
CC1=NN(c2cccc(C(F)(F)F)c2)C(=O)C1 [Compound 8]	5.41	
COc1ccccc1N1N=C(C)CC1=O [Compound 9]	2.67	
COc1cccc(N2N=C(C)CC2=O)c1 [Compound 10]	5.15	
COc1ccc(N2N=C(C)CC2=O)cc1 [Compound 11]	4.68	minimal effective dose [2]: ≥ 10 mg/kg; Presence of electroencephalogram restoration [3]: +
COc1ccc(N2N=C(C)CC2=O)cc1OC [Compound 12]	4.64	
CCOc1ccc(N2N=C(C)CC2=O)cc1 [Compound 13]	4.99	Presence of electroencephalogram restoration [3]: +
CC1=NN(c2ccccc2Cl)C(=O)C1 [Compound 14]	4.01	
CC1=NN(c2cccc(Cl)c2)C(=O)C1 [Compound 15]	5.47	
CC1=NN(c2ccc(Cl)cc2)C(=O)C1 [Compound 16]	5.40	Presence of electroencephalogram restoration [3]: +
CC1=NN(c2ccc(Cl)c(Cl)c2)C(=O)C1 [Compound 17]	5.80	
CC1=NN(c2ccc(F)cc2)C(=O)C1 [Compound 18]	4.92	
CC1=NN(c2ccc(C)c(Cl)c2)C(=O)C1 [Compound 19]	5.39	
CSc1cccc(N2N=C(C)CC2=O)c1 [Compound 20]	5.29	
CC1=NN(c2ccc(C(=O)O)cc2)C(=O)C1 [Compound 21]		Inhibitory percentage at 500 μM [1]: 34.0%
CCOC(=O)c1ccc(N2N=C(C)CC2=O)cc1 [Compound 22]	5.28	
CC1=NN(c2ccc([N+](=O)[O-])cc2)C(=O)C1 [Compound 23]	5.29	
CCC1=NN(c2ccccc2)C(=O)C1 [Compound 24, 3-Ethyl-1-phenyl-2-pyrazolin-5-one]	4.82	
CCCC1=NN(c2ccccc2)C(=O)C1 [Compound 25, 1-Phenyl-3-propyl-2-pyrazolin-5-one]	5.23	minimal effective dose [2]: ≥ 10 mg/kg; Presence of electroencephalogram restoration [3]: +
O=C1CC(c2ccccc2)=NN1c1ccccc1 [Compound 26, 1,3-Diphenyl-2-pyrazolin-5-one]	7.10	
Cc1ccc(N2N=C(c3ccccc3)CC2=O)cc1 [Compound 27]	5.92	
COc1ccc(N2N=C(c3ccccc3)CC2=O)cc1 [Compound 28]	5.52	

Compound	pIC50 [1]	further results
O=C1CC(c2ccccc2)=NN1c1ccc(Cl)cc1 [Compound 29]	5.92	
CC1=NN(c2ccccc2)C(=O)C1C (stereo not shown) [Compound 30, 3,4-Dimethyl-1-phenyl-2-pyrazolin-5-one]	4.69	Presence of electroencephalogram restoration [3]: +
CC1=NN(c2ccccc2)C(=O)C1CC(C)C (stereo not shown) [Compound 31, 4-Isobutyl-3-methyl-1-phenyl-2-pyrazolin-5-one]	5.24	minimal effective dose [2]: ≥ 10 mg/kg; Presence of electroencephalogram restoration [3]: +
CC1=NN(c2ccccc2)C(=O)C1CCO (stereo not shown) [Compound 32, 4-(2-Hydroxyethyl)-3-methyl-1-phenyl-2-pyrazolin-5-one]		Inhibitory percentage at 500 μM [1]: 62.7%
CC1=NN(c2ccccc2)C(=O)C1Oc1ccccc1 (stereo not shown) [Compound 33]	4.79	
CC1=NN(c2ccccc2)C(=O)C1Sc1ccccc1 (stereo not shown) [Compound 34]	3.83	
O=C1C2CCCCC2=NN1c1ccccc1 (stereo not shown) [Compound 35, 3,3a,4,5,6,7-Hexahydro-2-phenyl-2H-indazol-3-one]	4.79	Presence of electroencephalogram restoration [3]: +
CCOC(=O)CC1=NN(c2ccccc2)C(=O)C1 [Compound 36, 3-(Ethoxycarbonylmethyl)-1-phenyl-2-pyrazolin-5-one]	4.49	
CC1=NNC(=O)C1 [Compound 37, 3-Methyl-2-pyrazolin-5-one]		Inhibitory percentage at 500 μM [1]: 34.3%
CC1=NN(C)C(=O)C1 [Compound 38, 1,3-Dimethyl-2-pyrazolin-5-one]		Inhibitory percentage at 500 μM [1]: 45.5%
CC1=NN(CCO)C(=O)C1 [Compound 39, 1-(2-Hydroxyethyl)-3-methyl-2-pyrazolin-5-one]		Inhibitory percentage at 500 μM [1]: 39.2%
CC1=NN(C2CCCCC2)C(=O)C1 [Compound 40]	4.61	Presence of electroencephalogram restoration [3]: +
CC1=NN(Cc2ccccc2)C(=O)C1 [Compound 41]	4.48	
CC1=NN(c2cccc3ccccc23)C(=O)C1 [Compound 42]	5.31	
CN1N=C(c2ccccc2)CC1=O [Compound 43]	4.57	
CC1=NN(c2ccccc2O)C(=O)C1 [Compound 44, 1-(2-hydroxyphenyl)-3-methyl-2-pyrazolin-5-one]	4.45	
CC1=NN(c2cccc(O)c2)C(=O)C1 [Compound 45]	4.67	
CC1=NN(c2ccc(O)cc2)C(=O)C1 [Compound 46]	4.62	
CC1=NN(c2ccc(O)c(O)c2)C(=O)C1 [Compound 47]	5.89	
O=C1CC(c2ccccc2)=NN1c1ccc(O)cc1 [Compound 48]	5.57	
CC1=NN(c2ccc(CO)cc2)C(=O)C1 [Compound 49, 1-(4-hydroxymethylphenyl)-3-methyl-2-pyrazolin-5-one]	4.29	
CC1=NN(c2ccc(N)cc2)C(=O)C1 [Compound 50, 1-(4-aminophenyl)-3-methyl-2-pyrazolin-5-one dihydrochloride]	4.49	
O=C1CC=NN1c1ccccc1 [Compound 51, 1-Phenyl-2-pyrazolin-5-one]	4.70	
CCC1(c2ccccc2)C(=O)NC(=O)NC1=O [PHB, phenobarbital sodium salt, reference compound]		persistence of sleep-like electroencephalogram after PHB ([2]; PHB 30 mg/kg intravenous): at least 3 hours
vitamin E		inhibition of lipid peroxidation by active oxygen [4]: can inhibit lipid peroxidation by active oxygen; also recorded: only unsatisfactory action

Reference: patent publication USRE35801E, “Prophylactic and therapeutic composition for circulatory disorders and method of treatment” (priority 1985, dated 1998)
